Consider 10 compounds from patent US8716316B2 (Hoffmann-La Roche Inc., priority 2009, dated 2014).

This test has as its target T1, human mGlu5a receptor (Homo sapiens, UniProt P41594).
T1 construct: expressed in transfected cells
The test can be described thus: Intracellular Ca2+ mobilization assay. In kind it is cell-based. The following applies: for Emax: HEK293, maximal response in % of the maximal stimulatory effect obtained with saturating concentrations of L-glutamate, HEK-293 human mGlu5a cells, L-glutamate at EC20, read-out: Efficacy (%); for EC50: HEK-293 cells stably transfected with human mGlu5a receptor, pre-incubation 10-30 min with test compound, then L-glutamate at EC20 (typically around 80 μM), Fluo-4AM fluorescence, read-out: EC50 (nM) mGluR5 PAM. As for the experimental part:
A monoclonal HEK-293 cell line stably transfected with a cDNA encoding for the human mGlu5a receptor was generated; for the work with mGlu5 Positive Allosteric Modulators (PAMs), a cell line with low receptor expression levels and low constitutive receptor activity was selected to allow the differentiation of agonistic versus PAM activity. Cells were cultured according to standard protocols (Freshney, 2000) in Dulbecco's Modified Eagle Medium with high glucose supplemented with 1 mM glutamine, 10% (vol/vol) heat-inactivated bovine calf serum, Penicillin/Streptomycin, 50 μg/ml hygromycin and 15 μg/ml blasticidin (all cell culture reagents and antibiotics from Invitrogen, Basel, Switzerland).
About 24 hrs before an experiment, 5×10^4 cells/well were seeded in poly-D-lysine coated, black/clear-bottomed 96-well plates. The cells were loaded with 2.5 μM Fluo-4AM in loading buffer (1×HBSS, 20 mM HEPES) for 1 hr at 37° C. and washed five times with loading buffer. The cells were transferred into a Functional Drug Screening System 7000 (Hamamatsu, Paris, France), and 11 half logarithmic serial dilutions of test compound at 37° C. were added and the cells were incubated for 10-30 min. with on-line recording of fluorescence. Following this pre-incubation step, the agonist L-glutamate was added to the cells at a concentration corresponding to EC20 (typically around 80 μM) with on-line recording of fluorescence; in order to account for day-to-day variations in the responsiveness of cells, the EC20 of glutamate was determined immediately ahead of each experiment by recording of a full dose-response curve of glutamate.
Responses were measured as peak increase in fluorescence minus basal (i.e. fluorescence without addition of L-glutamate), normalized to the maximal stimulatory effect obtained with saturating concentrations of L-glutamate. Graphs were plotted with the % maximal stimulatory using XLfit, a curve fitting program that iteratively plots the data using Levenburg Marquardt algorithm. The single site competition analysis equation used was y=A+((B−A)/(1+((x/C)D))), where y is the % maximal stimulatory effect, A is the minimum y, B is the maximum y, C is the EC50, x is the log 10 of the concentration of the competing compound and D is the slope of the curve (the Hill Coefficient). From these curves the EC50 (concentration at which half maximal stimulation was achieved), the Hill coefficient as well as the maximal response in % of the maximal stimulatory effect obtained with saturating concentrations of L-glutamate were calculated.
A depression of the signal observed after addition of the EC20 concentration of L-glutamate was indicative of an inhibitory activity of the test compound.
(In general: A change in cytosolic calcium serves as a functional read-out for many receptors and channels.)

T1 sequence (P41594 21-1180 isoform P41594-2 limits assumed): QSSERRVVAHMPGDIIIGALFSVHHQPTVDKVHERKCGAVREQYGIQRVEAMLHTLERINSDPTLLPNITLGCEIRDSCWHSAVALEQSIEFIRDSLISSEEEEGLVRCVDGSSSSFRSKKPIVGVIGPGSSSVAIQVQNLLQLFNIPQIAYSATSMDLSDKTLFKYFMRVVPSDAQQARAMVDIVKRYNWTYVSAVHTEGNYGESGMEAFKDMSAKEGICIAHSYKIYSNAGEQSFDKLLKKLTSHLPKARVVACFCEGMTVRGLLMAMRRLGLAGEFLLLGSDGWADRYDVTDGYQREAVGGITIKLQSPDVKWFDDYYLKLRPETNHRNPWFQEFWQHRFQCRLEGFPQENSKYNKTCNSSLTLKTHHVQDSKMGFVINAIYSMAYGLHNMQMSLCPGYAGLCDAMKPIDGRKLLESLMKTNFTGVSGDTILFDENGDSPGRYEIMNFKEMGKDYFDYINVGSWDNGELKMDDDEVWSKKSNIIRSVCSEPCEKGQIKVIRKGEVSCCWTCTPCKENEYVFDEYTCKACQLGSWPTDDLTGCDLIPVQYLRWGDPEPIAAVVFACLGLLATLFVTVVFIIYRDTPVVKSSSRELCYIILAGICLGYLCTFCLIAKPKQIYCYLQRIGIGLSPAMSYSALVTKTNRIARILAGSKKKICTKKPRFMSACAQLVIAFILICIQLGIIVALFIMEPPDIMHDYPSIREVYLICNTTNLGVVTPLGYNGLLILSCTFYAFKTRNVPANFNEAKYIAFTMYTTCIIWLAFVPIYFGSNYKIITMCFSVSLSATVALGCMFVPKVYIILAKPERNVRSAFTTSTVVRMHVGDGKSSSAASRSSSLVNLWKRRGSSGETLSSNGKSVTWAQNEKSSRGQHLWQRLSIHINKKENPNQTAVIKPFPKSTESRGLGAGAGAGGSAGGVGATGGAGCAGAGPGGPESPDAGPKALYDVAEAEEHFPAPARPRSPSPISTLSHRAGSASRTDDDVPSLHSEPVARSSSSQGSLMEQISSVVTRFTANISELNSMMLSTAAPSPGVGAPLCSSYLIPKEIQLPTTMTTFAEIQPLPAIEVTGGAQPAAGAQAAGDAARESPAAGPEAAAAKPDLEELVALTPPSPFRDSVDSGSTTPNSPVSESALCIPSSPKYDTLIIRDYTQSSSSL

Usually EC50 stands for the concentration needed to bring the measured effect to its halfway point. For the compound `CC1(C)CC(=O)N(Cc2ccc(C#Cc3ccccc3)cn2)C1` [Example 33, 4,4-Dimethyl-1-(5-phenylethynyl-pyridin-2-ylmethyl)-pyrrolidin-2-one], the Emax was found to be 177% and the EC50 amounted to 132 nM.
`O=C1OCCCN1Cc1ccc(C#Cc2ccccc2)cn1` [Example 34, 3-(5-Phenylethynyl-pyridin-2-ylmethyl)-[1,3]oxazinan-2-one]: the Emax amounted to 119% and the half-maximal effective concentration (EC50) is 174 nM.
With `CN1CCN(Cc2ccc(C#Cc3ccccc3)cn2)C1=O` [Example 35, 1-Methyl-3-(5-phenylethynyl-pyridin-2-ylmethyl)-imidazolidin-2-one], the Emax came out at 119% and the EC50 was determined as 68 nM.
`CC1(C)CCC(=O)N1Cc1ccc(C#Cc2ccccc2)cn1` [Example 36, 5,5-Dimethyl-1-(5-phenylethynyl-pyridin-2-ylmethyl)-pyrrolidin-2-one]: the Emax was found to be 82% and the EC50 is 84 nM.
The corresponding values for `O=C1N(Cc2ccc(C#Cc3ccccc3)cn2)CCN1c1ccccc1` [Example 37, 1-Phenyl-3-(5-phenylethynyl-pyridin-2-ylmethyl)-imidazolidin-2-one] are 84% and 103 nM.
The corresponding values for `CC1(C)CCC(=O)N(Cc2ccc(C#Cc3ccccc3)cn2)C1` [Example 38, 5,5-Dimethyl-1-(5-phenylethynyl-pyridin-2-ylmethyl)-piperidin-2-one] are 94% and 161 nM.
For `CN1CCCN(Cc2ccc(C#Cc3ccccc3)cn2)C1=O` [Example 40, 1-Methyl-3-(5-phenylethynyl-pyridin-2-ylmethyl)-tetrahydro-pyrimidin-2-one], the Emax is 123% and the EC50 came to 140 nM.
In the case of `O=C1OCCN1Cc1ncc(C#Cc2ccccc2)cn1` [Example 42, 3-(5-Phenylethynyl-pyrimidin-2-ylmethyl)-oxazolidin-2-one], the Emax was 120% and the EC50 was 631 nM.
As for `CN(c1ncc(C#Cc2ccccc2)cn1)C1CCOCC1` [Example 43, Methyl-(5-phenylethynyl-pyrimidin-2-yl)-(tetrahydro-pyran-4-yl)-amine], the Emax came out at 84% and the EC50 was 195 nM.
In the case of `CN(c1ccc(C#Cc2ccccc2)cn1)C1CCOCC1` [Example 44], the Emax amounted to 103% and the EC50 came out at 338 nM.
